Columns and labels:
[1] = system: Human respiratory syncytial virus (RSV); test: Viral inactivation, modified plaque assay; type: cell-based; conditions: 100 μM, RT
Protocol: Human respiratory syncytial virus (RSV) was inactivated by using Compound VI or Compound X. For that purpose, sucrose gradient-purified virus was treated with 100 μM of Compound VI and Compound X at RT. […] The virus titers were determined using standard 10× serial dilutions in a modified plaque assay. For mock-treated virus no significant changes in RSV infectivity were found even after 6 h incubation at RT (in different experiments, the reduction of titers were in the range of 0.11-0.36 Login PFU/mL).
Inactivation of RSV with different concentrations of Compound XVI at RT and 40° C. was performed as described in Example 9.

RSV's fusion (F) protein = biological target: T1, RSV's fusion (F) protein (Human respiratory syncytial virus A, UniProt P03420); test: Anti-F antibody binding to treated RSV (ELISA); conditions: 100 μM, 4 hours at 40° C.
T1 construct: Sucrose gradient-purified RSV was treated with compound VI and compound X; host or cells: sucrose gradient-purified RSV virions
Protocol: Controls included mock-treated RSV incubated for 4 hours at 40° C. and non-treated virus kept at 4°° C. ELISA assay was performed according procedure described by Schmidt et al, J Virol. […] Eight serial 1:2 dilutions in PBS were plated (50 µl/well) in triplicates into 96-well plates, and incubated overnight at 4° C. The wells were washed with PBS and blocked with PBS/1% BSA. Anti-protein F antibody was added, and the mixture was incubated for 2 h, followed by washings and the addition of anti-mouse IgG HRP conjugate. After another round of washing, TMB substrate and sulfuric acid were added and readings were conducted using ELISA Reader SPECTRAmax PLUS (Molecular Devices,

[2] = system: synthetic 23-mer oligoribonucleotide (SEQ ID NO:2); test: Reactivity toward nucleic acids, mass spectrometry; type: biochemical; conditions: 100 μM oligonucleotide, 100 μM compound, PBS pH 7, room temperature, 6 min
[3] = Neutralization of compound X with methyl thiosalicylate (LCMS); type: physicochemical; conditions: 100 μM compound X, 10 mM methyl thiosalicylate, PBS
Protocol: The rate of neutralization of […] can be determined by plotting of logarithm of compound X concentration, determined by its peak area against the time of incubation.

P. fluorescens = test: Bacterial inactivation in WB, LB and RBCC, growth/no growth; type: cell-based; set-up: key: “+” Growth; “−” No growth; conditions: 6 h at RT
Protocol: (§1) Two G− species, Y. enterocolitica and P. fluorescens, both psychrophiles, and two G+ bacteria, S. epidermids and B. cereus, all known blood contaminants, were used in this study. All blood samples were spiked with approximately 0.1% bacterial stock suspension prepared in RS and left for equilibration at RT for 30 min. Freshly grown overnight bacterial cultures were used for each spiking. Compound VI and compound X were added to spiked blood to final concentrations of 100, 250, and 500 μM. Control samples (Ctr) received solvent only. Incubation was carried out at RT for 6 h followed by the addition of an inactivator, 100x Na thiosulfate, and additional incubation at RT for 2 h. After the incubation and quenching, aliquots were taken for serial dilutions and plate drop-counting and the bacterial growth-promoting solution (containing tryptone, peptone, yeast extract and casamino acids) was added to the remaining volumes. The growth/no growth results were confirmed by streaking agar plates.

B. cereus = test: as above; type: cell-based; set-up: key: “+” Growth; “−” No growth; conditions: 6 h at RT
Protocol: as §1

[4] = Neutralization of compound X with thiophenol (LCMS); conditions: for ratio of the peak areas of compounds X, XXVI and XXVII: 100 μM X, 10 mM thiophenol, PBS
Text: In the right panel are shown the mass spectra of the corresponding peaks.

[5] = system: 21-mer synthetic oligodeoxyribonucleotide (SEQ ID NO:1); test: Reactivity toward nucleic acids, HPLC; type: biochemical; conditions: 10 μM oligonucleotide, 200 μM compound, PBS pH 6.7, 37° C., 6 h
[6] = Binding of compound X to sulfonic cation exchange resin (Purolite NRW160, Na+ form) through ion pairs; type: physicochemical; conditions: 50 mg dry beads in one mL of 100 μM solution in PBS
Protocol: Purolite NRW160 polystyrene divinylbenzene cross-linked resin functionalized with sulfonic groups in the H^+ form, 500 g was transferred into the Na^+ form by the following steps: The beads were washed on a vacuum filter and under a sterile hood with 3 volumes of saturated NaCl solution, followed by two volume of 1 M NaOH. After NaOH sterilization beads were washed by sterile deionized water until the pH of the rinsings became neutral. The beads were incubated with two volumes of methanol for 15 min and after removing of methanol were rinsed again with three volumes of sterile deionized water. After final incubation in methanol (2 volumes) the alcohol was removed by filtration and beads were dried under the vacuum.
Dry beads, 50 mg were added to one mL of 100 μM solution of compound X in phosphate buffered saline.

[7] = Neutralization of compound X by ethyl 2-mercaptoacetate (LCMS); type: physicochemical; conditions: PBS, RT; for Peak Areas (LCMS): 100 μM X + 10 mM ethyl 2-mercaptoacetate
Protocol: 100 μM solution of compound X in phosphate buffered saline was incubated at room temperature with 10 mM of ethyl-2-mercaptoacetate, and the change of the concentration of compound X, as well as the formation of the intermediate compound of neutralization (XXI) and the final compound of neutralization XXII was determined by LCMS analysis of the mixture. The reaction scheme of neutralization is presented below. The peak areas of compound X, intermediate neutralization product, Q1 (compound XXI) and final neutralization product, Q2 (compound XXII) are presented in the Table 8 below, and in FIG. 18.

[8] = Neutralization of compound VI by sodium thiosulfate (LCMS); type: physicochemical; conditions: for first-order rate constant of reaction with Na2S2O3: Compound VI 100 μM, 1 mM Na2S2O3 in PBS
Protocol: The rate of reaction of Compound VI, 100 μM with 1 mM Na2S2O3 in PBS was determined by LCMS analysis of the reaction mixture (FIG. 19). […] LCMS analysis of the reaction product confirmed that it was the bisthiosulfate ester (compound XXIII formed by reacting of compound VI with two molecules of Na2S2O3.

[9] = row 1 h, footnote c: time points were 2, 4, and 6 h (2 h)
[10] = row 3 h, footnote c: time points were 2, 4, and 6 h (4 h)

T1 sequence (P03420 137-574): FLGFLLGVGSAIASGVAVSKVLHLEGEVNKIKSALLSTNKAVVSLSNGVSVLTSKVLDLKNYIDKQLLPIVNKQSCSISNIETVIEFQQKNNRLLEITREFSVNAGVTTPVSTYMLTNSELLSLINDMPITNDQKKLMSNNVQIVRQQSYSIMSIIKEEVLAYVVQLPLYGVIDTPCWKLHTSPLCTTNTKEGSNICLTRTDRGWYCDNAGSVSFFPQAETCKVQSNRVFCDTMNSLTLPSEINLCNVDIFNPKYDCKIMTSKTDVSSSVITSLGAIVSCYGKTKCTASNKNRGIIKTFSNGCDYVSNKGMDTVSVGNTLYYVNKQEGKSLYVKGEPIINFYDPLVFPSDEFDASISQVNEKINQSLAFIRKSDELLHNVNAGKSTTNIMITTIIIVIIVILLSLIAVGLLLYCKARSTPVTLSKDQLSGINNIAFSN
T1 sequence (P03420 26-109): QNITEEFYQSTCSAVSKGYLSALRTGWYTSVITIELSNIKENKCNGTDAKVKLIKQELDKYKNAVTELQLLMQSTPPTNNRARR

CN(CCCCN(C)CCCN1CC1)CCCN(C)CCCN1CC1 [Compound X]
RSV titer ([1]; incubation 6 h): 1.95 Log10PFU/mL
RSV titer [1, 9]: 4.95 Log10PFU/mL
RSV titer [1, 10]: 3.48 Log10PFU/mL
recognition of the F protein by monoclonal antibody after treatment (RSV's fusion (F) protein): did not change the degree of recognition of the F protein
covalent adduct with the oligonucleotide (MS) [2]: covalent mono-adduct
compound X half-life T1/2 [3]: 16.6 min
Growth / No growth (P. fluorescens; LB, 100 μM): −
Growth / No growth (P. fluorescens; LB, 250 μM): −
Growth / No growth (P. fluorescens; RBCC, 100 μM): −
Growth / No growth (P. fluorescens; RBCC, 250 μM): −
Growth / No growth (P. fluorescens; WB, 100 μM): −
Growth / No growth (P. fluorescens; WB, 250 μM): −
Growth / No growth (B. cereus; LB, 100 μM): −
Growth / No growth (B. cereus; LB, 250 μM): −
Growth / No growth (B. cereus; RBCC, 250 μM): −
Growth / No growth (B. cereus; WB, 100 μM): −
Growth / No growth (B. cereus; WB, 250 μM): −
Growth / No growth (B. cereus; WB, 500 μM): −
ratio of the peak areas of compounds X, XXVI and XXVII ([4]; after 1 min and 40 sec (100 sec)): 21
ratio of the peak areas of compounds X, XXVI and XXVII ([4]; after 10 min): 3
ratio of the peak areas of compounds X, XXVI and XXVII ([4]; after 20 min): 0.5
half-life of compound X ([4]; in presence of 10 mM of thiophenol): below 1 min
covalent adducts with the oligonucleotide (HPLC) [5]: appearance of covalent adducts
concentration of compound X in the supernatant [6]: below 30 nM
first order rate constant of concentration decrease ([7]; 10 mM ethyl 2-mercaptoacetate): 0.022 min⁻¹
Peak Areas (LCMS) ([7]; Time 6 min): 161.9
Peak Areas (LCMS) ([7]; Time 14.5 min): 128.8
Peak Areas (LCMS) ([7]; Time 23.1 min): 123.1
Peak Areas (LCMS) ([7]; Time 31.6 min): 96.3
Peak Areas (LCMS) ([7]; Time 40.2 min): 85
Peak Areas (LCMS) ([7]; Time 48.7 min): 76.9
Peak Areas (LCMS) ([7]; Time 57.3 min): 52.9
Peak Areas (LCMS) ([7]; Time 65.8 min): 42.7
Peak Areas (LCMS) ([7]; Time 74.3 min): 33.1
Peak Areas (LCMS) ([7]; Time 82.9 min): 26
Peak Areas (LCMS) ([7]; Time 91.4 min): 23.2
Peak Areas (LCMS) ([7]; Time 100.0 min): 17.4
Peak Areas (LCMS) ([7]; Time 108.5 min): 14
Peak Areas (LCMS) ([7]; Time 117.1 min): 11.5
Peak Areas (LCMS) ([7]; Time 125.6 min): 7.6

CN(CCCCN(C)CCCN1CC1)CCCN1CC1 [Compound VI, N^1,N^4-bis(3-(aziridin-1-yl)propyl)-N^1,N^4-dimethylbutane-1,4-diamine]
RSV titer ([1]; incubation 6 h): below the limit of detection and BLD
RSV titer [1, 9]: 4.52 Log10PFU/mL
RSV titer [1, 10]: 1.89 Log10PFU/mL
recognition of the F protein by monoclonal antibody after treatment (RSV's fusion (F) protein): did not change the degree of recognition of the F protein
Growth / No growth (P. fluorescens; LB, 100 μM): −
Growth / No growth (P. fluorescens; LB, 250 μM): −
Growth / No growth (P. fluorescens; LB, 500 μM): −
Growth / No growth (P. fluorescens; RBCC, 100 μM): −
Growth / No growth (P. fluorescens; RBCC, 250 μM): −
Growth / No growth (P. fluorescens; RBCC, 500 μM): −
Growth / No growth (P. fluorescens; WB, 100 μM): −
Growth / No growth (P. fluorescens; WB, 250 μM): −
Growth / No growth (P. fluorescens; WB, 500 μM): −
Growth / No growth (B. cereus; LB, 100 μM): −
Growth / No growth (B. cereus; LB, 250 μM): −
Growth / No growth (B. cereus; LB, 500 μM): −
Growth / No growth (B. cereus; RBCC, 100 μM): +
Growth / No growth (B. cereus; RBCC, 250 μM): −
Growth / No growth (B. cereus; RBCC, 500 μM): −
Growth / No growth (B. cereus; WB, 100 μM): +
Growth / No growth (B. cereus; WB, 250 μM): −
Growth / No growth (B. cereus; WB, 500 μM): −
residual compound VI concentration ([8]; 10 mM Na2S2O3, 25° C., after 2 h, extrapolated): 5.5e-07 pM
first-order rate constant of reaction with Na2S2O3 ([8]; 6° C.): 0.00614 min⁻¹
first-order rate constant of reaction with Na2S2O3 ([8]; 25° C.): 0.0379 min⁻¹
half-live of compound VI ([8]; in 10 mM Na2S2O3 and 25° C., extrapolated from rate): 1.83 min
